Here are results for four molecules from patent publication US8658690B2, “Use of novel compounds from fruiting body of Antrodia camphorata for treating an inflammatory disorder” (Well Shine Biotechnology Development Co., Ltd., priority 2008, dated 2014).

Type in all cases: cell-based, murine
The subject of data set [1] is TNF-α. In words: TNF-α secretion in LPS-stimulated RAW264.7 cells, ELISA. Conditions: 50 ng/mL LPS 48 hours, LPS control 3.81 ± 0.93. As for the experimental part:
(§1) The cytokine levels in culture supernatants were measured by sandwich ELISA methods as described by Chen and Lin (Chen, M. L. et al., Int. Arch. Allergy Immunol. 2007, 143, 21-30). More specifically, the anti-cytokine antibodies (PharMingen, San Diego, Calif.) were coated in the 96-well plates (Nunc, Roskilde, Denmark) after overnight incubation at 4° C. and having been blocked with 1% BSA PBS buffer for 30 min. The samples and standards (recombinant mouse cytokines, PharMingen) were added to the 96-well plates for 2 hours incubation. The biotin-conjugated antibodies (biotinylated rat anti-mouse cytokine monoclonal antibodies, PharMingen) were added and incubated. After washing, streptavidin-conjugated peroxidase was added for 1 hour. The substrates, 2,2′-azino-bis-3-ethyl-benzthiazoline-6-sulfonic acid (ABTS, Sigma), were added to each well for 20 min. The plates were read in a microplate autoreader (Microplate autoreader; Bio-Tek Instruments, Winooski, Vt.) at 405 nm.
(§2) IL-6, a proinflammatory cytokine which is a useful marker of infection, is secreted by macrophages in many infectious and inflammatory states, including cardiac surgery, cardiogenic shock, coronary bypass and bacteria sepsis (Kantar, M. et al., Eur. J. Pediatr. 2000, 159, 156-157). Serum concentration of IL-6 has been reported to correlate with disease severity (Pathan, N. et al., Lancet 2004, 363, 203-209). The productions of IL-6 from LPS-stimulated macrophages were measured to evaluate the anti-inflammation effect of the compounds. The cells were pretreated with compounds isolated from A. camphorata for 30 min and then stimulated with 50 ng/mL LPS for 48 hours. The supernatants were collected for TNF-α and IL-6 assay, and the cells were collected for viability analysis by MTT method.

Another data set relates to IL-6. In words: IL-6 secretion in LPS-stimulated RAW264.7 cells, ELISA. Conditions: for IL-6 (pg/mL) secretion: LPS control 238 ± 86; for IC50: Mus musculus, LPS-stimulated RAW264.7, 50 ng/mL LPS 48 hours, highest tested concentration 10 μg/mL, read-out: IC50 of IL-6 production. As for the experimental part:
as §1, §2
For orientation: An ELISA detects its analyte on a solid surface through an enzyme-linked reagent.

In data set [2] the test system is RAW264.7 macrophage cells. In words: Cell viability by MTT method in RAW264.7 cells treated with compounds for 48 hours (no LPS). The following applies: RAW264.7, no LPS; for Cell viability (%): mean ± SD. Here is the method: (§3) To evaluate the immunomodulatory effects of these new compounds, the in vitro production of cytokines in RA W264.7 cells were treated without or with the compounds of the invention at different concentrations for 48 hours. The supernatants were collected for TNF-α assay, and cells were collected for viability analysis by MTT method.
On the technique in general: Tetrazolium dyes change colour on reduction, which living cells bring about.

For data set [3], the system named is TNF-α. In words: Spontaneous TNF-α secretion by RAW264.7 cells, sandwich ELISA of supernatants. The following applies: 48 hours; for TNF-α (pg/mL) secretion: spontaneous, control 88 ± 45. Here is the method:
as §1, §3

The subject of data set [4] is LPS-stimulated RAW264.7 macrophage cells. Briefly: Cell viability by MTT method in LPS-stimulated RAW264.7 cells. Conditions: 30 min pretreatment then 50 ng/mL LPS 48 hours. As for the experimental part:
as §2

Where [5] appears, read: 0.5 μg/mL, 50 ng/mL LPS 48 hours.
Setting [6] is: 10 μg/mL, 50 ng/mL LPS 48 hours.

Broadly, the IC50 is the point on the concentration scale where inhibition reaches its midpoint.

In brackets after ≈: the same amount, converted by molar mass.

As for `CC(C)=CCOc1ccc([C@@H]2C(=O)NC(=O)[C@H]2CC(C)C)cc1` (relative stereo) [Compound 1, trans-3-Isobutyl-4-[4-(3-methyl-2-butenyloxy)phenyl]pyrrolidine-2,5-dione], the “TNF-α (ng/mL) secretion” value amounted to 3.69 ± 0.39 ng/mL in the data set on TNF-α [1] (0.5 μg/mL), 3.92 ± 0.39 ng/mL in the data set with TNF-α [1] (1 μg/mL), 3.68 ± 0.25 ng/mL with TNF-α [1] (5 μg/mL) and 3.65 ± 0.17 ng/mL in the data set with TNF-α [1] (10 μg/mL). The “IL-6 production in LPS-stimulated cells (in words)” value in the data set on IL-6 (50 ng/mL LPS 48 hours) is given as “significantly decreased”. For the same molecule, the “IL-6 (pg/mL) secretion” value was found to be 213 ± 88 pg/mL in the data set with IL-6 (setting [5]); 211 ± 99 pg/mL in the data set on IL-6 (1 μg/mL, 50 ng/mL LPS 48 hours); 144 ± 64 pg/mL in the data set on IL-6 (5 μg/mL, 50 ng/mL LPS 48 hours); 103 ± 61 pg/mL with IL-6 (setting [6]). In addition, the IC50 with IL-6 was 10 µg/mL (≈ 31.7 µM). Further, the “Cell viability (%)” value in data set [2] (0.5 μg/mL) is listed as 103 ± 2%; in data set [2] (1 μg/mL), 101 ± 3%; in data set [2] (2 μg/mL) it was 108 ± 6%; in data set [2] (5 μg/mL) it was 100 ± 10%; in data set [2] (10 μg/mL) it was 99 ± 7%; in data set [4] (0.5 μg/mL), 105 ± 3%. Further, the “Cell viability (%)” value came to 106 ± 4% in data set [4] (1 μg/mL), 105 ± 3% in data set [4] (5 μg/mL) and 102 ± 4% in data set [4] (10 μg/mL). The “effect on cell viability (in words)” value in data set [2] is “without affecting cell viability”. The “spontaneous TNF-α secretion by RAW264.7 cells (in words)” value in the data set on TNF-α [3] (0.5˜5 μg/mL) was “significantly increased”. The “TNF-α (pg/mL) secretion” value with TNF-α [3] (0.5 μg/mL) was found to be 117 ± 31 pg/mL; with TNF-α [3] (1 μg/mL) it was 145 ± 44 pg/mL; with TNF-α [3] (2 μg/mL), 183 ± 89 pg/mL; in the data set with TNF-α [3] (5 μg/mL), 212 ± 60 pg/mL; in the data set on TNF-α [3] (10 μg/mL), 188 ± 41 pg/mL.
As for `CC(C)C[C@@H]1C(=O)N(O)C(=O)[C@H]1c1ccc(O)cc1` (relative stereo) [Compound 2, trans-1-Hydroxy-3-(4-hydroxyphenyl)-4-isobutylpyrrolidine-2,5-dione], the “TNF-α (ng/mL) secretion” value is given as 3.34 ± 0.58 ng/mL in the data set on TNF-α [1] (0.5 μg/mL), 4.04 ± 0.46 ng/mL with TNF-α [1] (1 μg/mL), 4.76 ± 0.65 ng/mL in the data set on TNF-α [1] (5 μg/mL) and 3.66 ± 0.67 ng/mL in the data set on TNF-α [1] (10 μg/mL). For the same molecule, the “IL-6 (pg/mL) secretion” value in the data set on IL-6 (setting [5]) is recorded as 216 ± 102 pg/mL; in the data set with IL-6 (1 μg/mL, 50 ng/mL LPS 48 hours) it was 224 ± 110 pg/mL; in the data set on IL-6 (5 μg/mL, 50 ng/mL LPS 48 hours), 210 ± 96 pg/mL; in the data set on IL-6 (setting [6]), 191 ± 68 pg/mL. For the same molecule, the IC50 in the data set with IL-6 was determined as 54 µg/mL (≈ 205 µM). In addition, the “Cell viability (%)” value in data set [2] (0.5 μg/mL) is 106 ± 7%; in data set [2] (1 μg/mL), 100 ± 5%; in data set [2] (2 μg/mL) it was 100 ± 5%; in data set [2] (5 μg/mL), 94 ± 6%; in data set [2] (10 μg/mL), 90 ± 4 %; in data set [4] (0.5 μg/mL) it was 110 ± 5 %. The entries for the “Cell viability (%)” value in data set [4] (1 μg/mL), in data set [4] (5 μg/mL) and in data set [4] (10 μg/mL) were 111 ± 6 %, 111 ± 8 % and 109 ± 2 %, respectively. In addition, the “TNF-α (pg/mL) secretion” value is listed as 108 ± 28 pg/mL with TNF-α [3] (0.5 μg/mL); 97 ± 13 pg/mL in the data set on TNF-α [3] (1 μg/mL); 105 ± 23 pg/mL with TNF-α [3] (2 μg/mL); 96 ± 8 pg/mL in the data set on TNF-α [3] (5 μg/mL); 128 ± 70 pg/mL in the data set with TNF-α [3] (10 μg/mL).
Regarding `CC(C)C[C@H]1C(=O)OC(=O)[C@H]1c1ccc(O)cc1` (relative stereo) [Compound 3, cis-3-(4-Hydroxyphenyl)-4-isobutyldihydrofuran-2,5-dione], the “TNF-α (ng/mL) secretion” value in the data set with TNF-α [1] (0.5 μg/mL) amounted to 3.17 ± 0.70 ng/mL; with TNF-α [1] (1 μg/mL), 3.64 ± 0.84 ng/mL; in the data set on TNF-α [1] (5 μg/mL), 3.88 ± 0.37 ng/mL; in the data set on TNF-α [1] (10 μg/mL), 3.90 ± 0.10 ng/mL. Further, the “IL-6 (pg/mL) secretion” value in the data set with IL-6 (setting [5]) is recorded as 214 ± 82 pg/mL; in the data set on IL-6 (1 μg/mL, 50 ng/mL LPS 48 hours) it was 234 ± 109 pg/mL; in the data set with IL-6 (5 μg/mL, 50 ng/mL LPS 48 hours), 185 ± 76 pg/mL; with IL-6 (setting [6]), 147 ± 53 pg/mL. For the same molecule, in the data set with IL-6, the IC50 was found to be 17 µg/mL (≈ 68.5 µM). In addition, the “Cell viability (%)” value was found to be 91 ± 9% in data set [2] (0.5 μg/mL); 87 ± 8% in data set [2] (1 μg/mL); 80 ± 9 % in data set [2] (2 μg/mL); 72± 11 % in data set [2] (5 μg/mL); 67 ± 15 % in data set [2] (10 μg/mL); 105 ± 6% in data set [4] (0.5 μg/mL). The “Cell viability (%)” value is listed as 104 ± 6% in data set [4] (1 μg/mL), 99 ± 3% in data set [4] (5 μg/mL) and 91 ± 4 % in data set [4] (10 μg/mL). The “TNF-α (pg/mL) secretion” value with TNF-α [3] (0.5 μg/mL) came to 55 ± 2 pg/mL; in the data set on TNF-α [3] (1 μg/mL), 74 ± 7 pg/mL; in the data set with TNF-α [3] (2 μg/mL) it was 68 ± 7 pg/mL; in the data set with TNF-α [3] (5 μg/mL) it was 68 ± 26 pg/mL; in the data set with TNF-α [3] (10 μg/mL), 77 ± 35 pg/mL.
For the molecule `CC(C)CC1=C(c2ccc(O)cc2)C(=O)NC1=O` [Compound 4, 3-(4-Hydroxyphenyl)-4-isobutyl-1H-pyrrole-2,5-dione], the “TNF-α (ng/mL) secretion” value in the data set on TNF-α [1] (0.5 μg/mL) came out at 2.98 ± 0.24 ng/mL; in the data set on TNF-α [1] (1 μg/mL), 3.22 ± 0.35 ng/mL; in the data set on TNF-α [1] (5 μg/mL), 3.72 ± 0.23 ng/mL; in the data set on TNF-α [1] (10 μg/mL), 3.12 ± 0.61 ng/mL. Also, the “IL-6 (pg/mL) secretion” value in the data set on IL-6 (setting [5]) is reported as 194 ± 81 pg/mL; in the data set with IL-6 (1 μg/mL, 50 ng/mL LPS 48 hours) it was 257 ± 40 pg/mL; in the data set on IL-6 (5 μg/mL, 50 ng/mL LPS 48 hours) it was 195 ± 83 pg/mL; in the data set with IL-6 (setting [6]) it was 169 ± 63 pg/mL. Also, in the data set with IL-6, the IC50 is 18 µg/mL (≈ 73.4 µM). Also, the “Cell viability (%)” value in data set [2] (0.5 μg/mL) is recorded as 97 ± 13%; in data set [2] (1 μg/mL), 99 ± 4%; in data set [2] (2 μg/mL), 97 ± 5%; in data set [2] (5 μg/mL) it was 94 ± 7%; in data set [2] (10 μg/mL) it was 81 ± 8 %; in data set [4] (0.5 μg/mL), 105 ± 6%. Also, the “Cell viability (%)” value in data set [4] (1 μg/mL) was determined as 103 ± 5%; in data set [4] (5 μg/mL) it was 97 ± 5%; in data set [4] (10 μg/mL) it was 92 ± 8%. For the same molecule, the “TNF-α (pg/mL) secretion” value in the data set on TNF-α [3] (0.5 μg/mL) came to 91 ± 38 pg/mL; with TNF-α [3] (1 μg/mL), 83 ± 22 pg/mL; in the data set with TNF-α [3] (2 μg/mL) it was 105 ± 13 pg/mL; with TNF-α [3] (5 μg/mL), 118 ± 23 pg/mL; in the data set with TNF-α [3] (10 μg/mL) it was 104 ± 25 pg/mL.
